Data published in patent publication US6790869B2, “Resveratrol analogs for prevention of disease” (Rutgers, The State University of New Jersey, priority 1999, dated 2004).

Columns and labels:
[1] = test system: W138 human diploid fibroblasts; test: Cell proliferation assay, viable cells counted by trypan blue dye exclusion; format: cell-based; conditions: for Growth Rate in Cells Following Exposure to Resveratrol Analogs, W138 Cells: at the concentration in parentheses after the analog, 5 days in culture
Method: (§1) Initial tests examined the potential cancer preventive activity of the analogs. Resveratrol and its analogs were evaluated in W138 and SV40 transformed W138VA cells and in preneoplastic 184-B5/HER and neoplastic SK-BR-3 human mammary epithelial cells. Cell proliferation, apoptosis, and gene expression studies were conducted using standard methodologies.
(§2) W138 human diploid fibroblasts and cancerous SV40-transformed W138 cells (W138VA) were used in a cell proliferation assay. Growth rate and viability of these cells was determined following addition of each analog. Doses tested ranged from 50 ng to 300 μg per ml or 1 μM to 100 μM concentrations in culture media. Cell cultures were grown for 5 days in the presence of the various doses of analogs. Growth rate was measured by counting viable cells using the trypan blue dye exclusion method. Resveratrol inhibited cell growth at low concentrations, less than 10 μM. […] MR-1 was not active as an inhibitor of cell growth even at doses as high as 100 μM.

[2] = test system: SV40-transformed W138 cells (W138VA); test: as above; format: cell-based, human; design: key to Growth Rate in Cells Following Exposure to Resveratrol Analogs, W138VA Cells: +: >60% growth inhibition; —: no effect or only slight inhibition observed; conditions: for Growth Rate in Cells Following Exposure to Resveratrol Analogs, W138VA Cells: at the concentration in parentheses after the analog, 5 days in culture
Method: as §1, §2

[3] = test system: W138 and W138VA cells; test: Cell proliferation assay, result not separated by cell line; format: cell-based, human; conditions: for effective concentration for growth inhibition: value in parentheses in Table 1, W138 / W138VA cells, 5 days
Method: as §1, §2

[4] = test system: W138 cells; test: Morphological changes in cells; format: cell-based, human; conditions: normal W138 cells
Source text: In addition to inhibition of cell growth, treatment of W138 and W138VA cells with analogs led to morphological changes in the cells. Treatment of W138 cells with resveratrol and its analogs R-1 and R-3 led to elongation of normal W138 cells. Methoxy analogs such as MR-0 and MR-3 caused the flattening of W138 cells.

[5] = test system: W138 cells; test: Apoptosis assay, fluorescent labeling of fragmented DNA; format: cell-based, human
Source text: (§3) The effect of the analogs on apoptosis was also examined. Apoptosis is characterized by nuclear DNA fragmentation that is mediated through a variety of signal transduction pathways. An assay was used that relies on fluorescent labeling of fragmented DNA.

[6] = test system: W138VA cells; test: as above; format: cell-based, human
Source text: as §3

[7] = test system: 184-B5/HER cells; test: Growth inhibition in 184-B5/HER cells; format: cell-based; conditions: Homo sapiens, read-out: concentration that inhibited growth by 50% (IC50); 184-B5/HER cells
Method: as §1
(§4) Resveratrol and its analogs were also tested in 184-B5/HER cells.

[8] = test system: 184-B5/HER cells; test: Cell cycle analysis; format: cell-based, human
Method: as §4

[9] = test system: 184-B5/HER cells; test: Apoptosis assay, fluorescent labeling of fragmented DNA; format: cell-based, human
Source text: as §3

[10] = test system: 184-B5/HER cells; test: Anchorage-dependent colony formation assay; format: cell-based; conditions: Homo sapiens; 184-B5/HER cells, continuous treatment with 4 μM; read-out: inhibition of colony formation
Source text: Cell colony formation was also examined in 184-B5/HER cells. […] Resveratrol, MR-0 and MR-2 produced approximately 25-40% inhibition in the anchorage-dependent colony formation assay. MR-3, however, produced almost a 80% inhibition of colony formation.

COc1cc(C=Cc2cc(OC)cc(OC)c2)cc(OC)c1 [MR-4, 3,3′,5′5′-tetramethoxystilbene]
inhibition of growth ([1]; W138 cells, 100 μM): inhibited growth
Growth Rate in Cells Following Exposure to Resveratrol Analogs, W138 Cells [1]: + (>60% growth inhibition)
inhibition of growth ([2]; W138VA cells, 100 μM): not W138VA cells
Growth Rate in Cells Following Exposure to Resveratrol Analogs, W138VA Cells [2]: —
effective concentration for growth inhibition [3]: MR4 (100 μM)

Oc1ccc(C=Cc2cc(O)c(O)c(O)c2)cc1 [Analog R-3, 3,4,4′,5-tetrahydroxystilbene]
Growth Rate in Cells Following Exposure to Resveratrol Analogs, W138 Cells [1]: + (>60% growth inhibition)
Growth Rate in Cells Following Exposure to Resveratrol Analogs, W138VA Cells [2]: + (>60% growth inhibition)
fold less effective than resveratrol in inhibiting cell growth ([3]; relative to resveratrol): 10 fold
effective concentration for growth inhibition [3]: R3 (10 μM)
morphological change of cells [4]: elongation
induction of apoptosis [5]: not in W138 cells
induction of apoptosis [6]: induced apoptosis

COc1cc(C=Cc2ccc(OC)c(OC)c2)cc(OC)c1 [MR-2, 3,3′,4,5′-tetramethoxystilbene]
IC50 [7]: 120 µM
cell cycle effect relative to solvent-treated control cultures [8]: progressive arrest of cell in the G2/M phase
induction of apoptosis versus solvent-treated control cells [9]: induced apoptosis to a significantly greater extent than solvent-treated control cells
inhibition at 4 µM [10]: 25 to 40%

Oc1cc(O)cc(C=Cc2ccccc2)c1 [Analog R-1, 3,5-dihydroxystilbene]
morphological change of cells [4]: elongation
